SMILES strings stand for the structures. Calls of active or inactive are those of the source. The rule behind the calls is not given here.

One may read the IC50 as the concentration at which inhibition is half-maximal.

For one assay, the system named is Vero. Kind of assay: Cytotoxicity against african green monkey Vero cells after 48 hrs by WST-8 assay. Format: functional, cell-based. Particulars: Chlorocebus sabaeus. Background: Tetrazolium assays rely on reduction of a dye to a coloured formazan, in cell work by metabolically active cells.
Assay [1] is described as follows: Cytotoxicity against Sf9 cells after 48 hrs by WST-8 assay. In kind it is functional, cell-based. Particulars: Spodoptera frugiperda, Sf9, 48 h.
Another assay relates to Musca domestica. Put plainly: Insecticidal activity against adult housefly at 44 ug/insect administered topically. Format: functional, organism-based.
Assay [2] concerns Culex pipiens. Kind of assay: Insecticidal activity against mosquito larvae at 1.2 ug/insect administered as injection. Format: functional, organism-based.
Assay [3] can be described thus: Cytotoxicity against human HL60 cells after 48 hrs by WST-8 assay. Format: functional, cell-based. Particulars: HL-60, 48 h.
For assay [4], the system named is Colon 26. Kind of assay: Cytotoxicity against mouse Colon 26 cells after 48 hrs by WST-8 assay. Format: functional, cell-based. Particulars: Colon 26, 48 h.
The subject of assay [5] is Culex pipiens. Kind of assay: Insecticidal activity against mosquito larvae at 50 uM. Format: functional, organism-based.
Assay [6] has as its system Colon 26. Kind of assay: Cytotoxicity against mouse Colon 26 cells at 100 uM after 48 hrs by WST-8 assay. Format: functional, cell-based.
The test system of assay [7] is Spodoptera litura. Put plainly: Insecticidal activity against cutworms assessed as number of weight reduced larvae at 21 ug, po for a day followed by rearing on normal diet measured on day 1 (reference value: 10 no_unit). Format: functional.
For assay [8], the system named is HL-60. Kind of assay: Induction of apoptosis in human HL60 cells assessed as activation of caspase 3 at 100 uM after 4 to 6 hrs by immunoblotiing. In kind it is functional, cell-based. Background: Immunoblotting shows a protein as a band on a membrane.
For assay [9], the system named is Spodoptera litura. Kind of assay: Insecticidal activity against cutworms assessed as number of weight reduced larvae at 21 ug, po for a day followed by rearing on normal diet measured on day 4 (reference value: 10 no_unit). In kind it is functional.
The test system of assay [10] is Spodoptera litura. Put plainly: Insecticidal activity against cutworms assessed as number of weight reduced larvae at 21 ug, po for a day followed by rearing on normal diet measured on day 7 (reference value: 6.3 no_unit). Format: functional.
Assay [11] concerns Spodoptera litura. Kind of assay: Insecticidal activity against cutworms assessed as number of weight reduced larvae at 21 ug, po for a day followed by rearing on normal diet measured on day 5 (reference value: 8.7 no_unit). Format: functional.
Assay [12] relates to Spodoptera litura. Kind of assay: Insecticidal activity against cutworms assessed as growth inhibition at 21 ug, po for a day followed by rearing on normal diet measured up to 7 days. Format: functional, organism-based.
In assay [13] the test system is Spodoptera litura. Kind of assay: Insecticidal activity against cutworms assessed as number of weight reduced larvae at 21 ug, po for a day followed by rearing on normal diet measured on day 2 (reference value: 10 no_unit). In kind it is functional.
Assay [14] relates to Spodoptera litura. Kind of assay: Insecticidal activity against cutworms assessed as number of weight reduced larvae at 21 ug, po for a day followed by rearing on normal diet measured on day 3 (reference value: 10 no_unit). Format: functional.
Assay [15] has as its system HL-60. Put plainly: Induction of apoptosis in human HL60 cells assessed as DNA fragmentation at 100 uM after 4 to 6 hrs by electrophoresis. In kind it is functional, cell-based.
The test system of assay [16] is Spodoptera litura. Kind of assay: Insecticidal activity against cutworms assessed as number of weight reduced larvae at 21 ug, po for a day followed by rearing on normal diet measured on day 6 (reference value: 6.7 no_unit). In kind it is functional.
The test system of assay [17] is Spodoptera litura. Kind of assay: Insecticidal activity against cutworms at 4 mg/disk by leaf dik assay. Format: functional, organism-based.

On to `CC(C)C[C@@H]1C[C@@]2(CC[C@H]3C[C@@H]2C3(C)C)OC2=C1C(=O)C(C)(C)C(=O)C2(C)C`, for which the 50% inhibitory concentration (IC50) in the assay on Vero was determined as 8.39 µM; in assay [1] it was 63.5 µM; in [3] it was 3.67 µM; in the assay with Colon 26 [4] it was 13.6 µM. The outcome in the assay on Musca domestica, in the assay on Culex pipiens [2] and in the assay with Culex pipiens [5] was inactive.
For `C=C1CC[C@H]2C[C@@H]1C2(C)C`, in the assay with Colon 26 [6], the result was inactive.
Take `CCC[C@@H]1C[C@@]2(CC[C@H]3C[C@@H]2C3(C)C)OC2=C1C(=O)C(C)(C)C(=O)C2(C)C`: the half-maximal inhibitory concentration (IC50) is 21.4 µM with Vero, 99.2 µM in assay [1], 23.5 µM in assay [3] and 14.2 µM with Colon 26 [4].
With `CCC[C@H]1C[C@@]2(CC[C@H]3C[C@@H]2C3(C)C)OC2=C1C(=O)C(C)(C)C(=O)C2(C)C`, the half-inhibitory concentration (IC50) in the assay with Vero was found to be 14.4 µM; in [1], 30.1 µM; in [3] it was 19.4 µM; in the assay with Colon 26 [4], 12.6 µM.
As to `CC1(C)C(=O)CC(=O)C(C)(C)C1=O`, the outcome in the assay with Colon 26 [6] was inactive.
For `CC(C)C[C@H]1C[C@@]2(CC[C@H]3C[C@@H]2C3(C)C)OC2=C1C(=O)C(C)(C)C(=O)C2(C)C`, the Activity with Spodoptera litura [7] was determined as 10; in the assay with Spodoptera litura [9], 9; with Spodoptera litura [10], 7; with Spodoptera litura [11], 8.7; with Spodoptera litura [13] it was 10; with Spodoptera litura [14], 9.7. Further, the Activity with Spodoptera litura [16] was determined as 7.3. Besides, the result in the assay on HL-60 [8] and with HL-60 [15] was Active. Besides, the IC50 stood at 12.4 µM with Vero, 32.1 µM in assay [1], 2.9 µM in assay [3] and 8.96 µM in the assay on Colon 26 [4]. For the same compound, the result in the assay on Musca domestica, with Culex pipiens [2], with Culex pipiens [5] and in the assay on Spodoptera litura [17] was inactive. The “growth inhibition (GI)” value in the assay on Spodoptera litura [12] is “Active”.

The record behind these values is ChEMBL document CHEMBL3351587, “Revised stereochemistry of ficifolidione and its biological activities against insects and cells” (J Nat Prod, 2015).
